From PMC10051705, “Leishmanicidal Activity of Guanidine Derivatives against Leishmania infantum” (Tropical Medicine and Infectious Disease, 2023)
Marks after values point to notes of the source that are not given here.

Legend:
[1] = test system: peripheral blood mononuclear cells (PBMCs); test: in vitro cytotoxicity in PBMC (MTT); format: cell-based, human; settings: CC50 PBMC / EC50 axenic amastigotes
Protocol: (§1) In vitro cytotoxicity was evaluated using peripheral blood mononuclear cells (PBMCs) collected from three healthy volunteers (2 males, mean age 33; and 1 person). PBMCs were separated by density gradient using Ficoll Paque PLUS (GE Healthcare, USA), pelleted by centrifugation (400× g for 40 min), and resuspended in RPMI 1640 medium, then supplemented with 10% fetal bovine serum and 1% antibiotic solution (penicillin 5000 Units/mL + streptomycin 5000 μg/mL). After 24 h of treatment, cell viability was evaluated by the modified colorimetric method based on the tetrazolium dye MTT (3-(4,5-dimethylthiazol-2-yl)-2,5- diphenyltetrazolium bromide). The MTT assay was used for in vitro cytotoxicity as previously described with the following modifications: cells were exposed to serially diluted concentrations of LQOFG-2, LQOFG-6, LQOFG-7 (1000 to 7.8 µM), and AmB (100 to 0.78 µM). The plates were kept at 37 °C for 24 h. MTT (5 mg/mL) was added and incubated for 4 h at 37 °C, after which the plates were centrifuged, the supernatant was discarded, and DMSO was added, leaving the plates under stirring to solubilize the formazan salts. Absorbance was measured at 540 nm using a plate reader (ELx800; Curitiba, PR, Brazil). The mean percentage of viable cells was calculated relative to the untreated control.

[2] = in vitro cytotoxicity in PBMC (MTT); format: cell-based, human; settings: both sexes, human, peripheral blood mononuclear cells (PBMCs), human PBMC, 24 h, MTT
Protocol: as §1

[3] = test system: L. infantum promastigotes; test: promastigote growth inhibition assay (MTT); format: cell-based; settings: Leishmania infantum, 72 h, 26 °C
Protocol: The promastigote forms of Leishmania (Leishmania) infantum [IOC/L0579(MHOM/BR/1974/PP75)] were cultured in Schneider’s medium, pH 7.0, supplemented with 20% heat-inactivated fetal bovine serum (FBS), 2% male human urine, 100 U/mL of penicillin, and 100 mg/L of streptomycin, and the parasites were maintained at 26 °C. The procedure to obtain the extracellular axenic amastigote form of L. infantum was based on methods previously described that were modified using a Schneider medium readjusted to pH 5.5 at 37 °C. The culture of promastigote forms in the stationary phase was centrifuged, and the medium of these cells was replaced and differentiated into axenic amastigotes by temperature and medium pH changes. Parasites were maintained in culture for no more than 20 passages.
The promastigote growth inhibition assay was performed as previously described. Promastigotes were harvested during the exponential growth phase. They were incubated in the presence and absence of several concentrations of LQOFG-2, LQOFG-6, LQOFG-7 (500 to 7.8 µM), and AmB (10 to 0.078 µM) as the positive control. The plate was incubated at 26 °C for 72 h in a biological oxygen demand (B.O.D.) incubator using a Schneider’s medium (Schneider’s Insect Medium 24.5 g/L; L-glutamine 1.8 g/L; glucose 2 g/L and sodium bicarbonate 0.4 g/L; Sigma-Aldrich—St. Louis—USA) supplemented. The growth inhibition was evaluated using an MTT assay kit (Amresco, Solon, OH, USA) according to the manufacturer’s protocol. After 4 h of incubation, 10% sodium dodecyl sulfate was added to dissolve the formazan crystals. The absorbance (540 nm) was measured using a plate reader (Biosystems model ELx800; Curitiba, PR, Brazil). […] Three independent experiments we performed in triplicate.

[4] = test system: L. infantum promastigotes; test: apoptosis/necrosis profiling, annexin V/PI staining, promastigotes; format: cell-based, Leishmania infantum
Protocol: (§2) To evaluate both apoptosis and necrosis, promastigote forms of L. infantum in the log phase of growth were incubated at several concentrations based on the IC50 values of LQOFG-2 (6.35; 12.7, 25.4, and 50.8 µM) LQOFG-6 (12.2, 24.4, 48.8 and 97.6 µM), and LQOFG-7 (11.65, 23.3, 46.6 and 93.2 µM), and AmB (1.5 and 6 µM) was used as the positive control. The plates were incubated for 24 h at 26 °C ± 1 °C in a B.O.D. incubator. After incubation, the promastigotes were washed three times in cold PBS, resuspended in binding buffer (10-mM HEPES, 140-mM NaCl, and 2.5-mM CaCl2, pH 7.4), and stained using a FITC Annexin V/Dead Cell Apoptosis Kit (BD Biosciences, San Jose, CA, USA) according to the manufacturer’s instructions. The stained cells were diluted and suspended in an Annexin V binding buffer (BD Biosciences, San Jose, CA, USA). Annexin V-FITC/propidium iodide (PI)-stained cells were analyzed using a BD FACSCanto II flow cytometer (BD Biosciences, San Jose, CA, USA). The raw data were analyzed using FlowJo 10.0.7 software (TreeStar Inc., Ashland, OR, USA).

human red blood cells = test: red blood cell lysis assay; format: cell-based; settings: 1 h, 37 °C
Protocol: The hemolytic activities of guanidine compounds were measured using human red blood cells from healthy adults (n = 3) according to methods previously described. Briefly, 80 µL of a 5% erythrocyte/phosphate-buffered saline (PBS) suspension was mixed with 20 µL of LQOFG-2, LQOFG-6, LQOFG-7, (1000 to 7.8 µM), and AmB (100 to 0.78 µM). After incubation at 37 °C for 1 h, 200 µL of PBS (1.5 mM KH2PO4, 8.1 mM Na2HPO4, 136.9 mM NaCl, and 2.6 mM KCl, pH 7.2) was added to stop the hemolysis process, and the samples were centrifuged for 10 min at 1000× g. The supernatants were collected, and the extent of hemolysis was measured spectrophotometrically at 540 nm. The hemolysis percentage was determined as [(Abssam − Abscon)/(Abstot − Abscon) × 100], where Abssam is the absorbance of the sample, Abscon is the absorbance of the blank control (without drugs), and Abstot is the absorbance of total hemolysis (replacing the sample solution with an equal volume of ultrapure water (Direct-Q UV®, Guyancourt, France)).

[5] = test system: L. infantum axenic amastigotes; test: apoptosis/necrosis profiling, annexin V/PI staining, axenic amastigotes; format: cell-based, Leishmania infantum
Protocol: as §2
To evaluate both apoptosis and necrosis of the amastigote-like forms of L. infantum, the protocol was followed. In each well, amastigotes were treated with the guanidine compounds and controls.

[6] = test system: L. infantum axenic amastigotes; test: axenic amastigote inhibition assay (MTT); format: cell-based; settings: Leishmania infantum, 24 h; for EC50: 37 °C, pH 5.5, MTT; for inhibition at 31.2 µM: read-out: inhibition of axenic amastigotes compared to the control (untreated)

Row | Compound | SI (CC50/EC50) [1] | CC50 at 24 h [2] [µM] | IC50 [3] [µM] | % cells, Early Apoptosis (AV+, PI−) ([4]; 0.5× IC50, 24 h) [%] | % cells, Late Apoptosis (AV+, PI+) ([4]; 0.5× IC50, 24 h) [%] | % cells, Necrosis (AV−, PI+) ([4]; 0.5× IC50, 24 h) [%] | % cells, Early Apoptosis (AV+, PI−) ([4]; 1× IC50, 24 h) [%] | % cells, Late Apoptosis (AV+, PI+) ([4]; 1× IC50, 24 h) [%] | % cells, Necrosis (AV−, PI+) ([4]; 1× IC50, 24 h) [%] | % cells, Early Apoptosis (AV+, PI−) ([4]; 2× IC50, 24 h) [%] | % cells, Late Apoptosis (AV+, PI+) ([4]; 2× IC50, 24 h) [%] | % cells, Early Apoptosis (AV+, PI−) ([4]; 4× IC50, 24 h) [%] | % cells, Late Apoptosis (AV+, PI+) ([4]; 4× IC50, 24 h) [%] | HC50, toxicity to red blood cells (human red blood cells) [µM] | % cells, Early Apoptosis (AV+, PI−) ([5]; 0.5 × EC50, 24 h) | % cells, Late Apoptosis (AV+, PI+) ([5]; 0.5 × EC50, 24 h) | % cells, Early Apoptosis (AV+, PI−) ([5]; 1 × EC50, 24 h) | % cells, Late Apoptosis (AV+, PI+) ([5]; 1 × EC50, 24 h) | % cells, Necrosis (AV−, PI+) ([5]; 1 × EC50, 24 h) [%] | % cells, Early Apoptosis (AV+, PI−) ([5]; 2 × EC50, 24 h) | further results
1 | O=C(/N=C(/NCc1ccccc1)Nc1ccc(Br)cc1)c1ccccc1 [LQOFG-2, (Z)-N-((benzylamine)((4-bromophenyl)amino)methylene)benzamide] | 12.00 | 313 ± 3.23 | 12.7 ± 0.25 | 0.27± 0.09 | 0.55 ± 0.04 | 1.69 ± 0.28 | 0.12 ± 0.02 | 0.41 ± 0.14 | 2.07 ± 0.23 | 0.35 ± 0.01 | 0.78 ± 0.15 | 0.34 ± 0.09 | 0.63 ± 0.12 | >1000 | 5.68 ± 0.29 ^a % | 31.43 ± 0.03 ^b % | 8.13 ± 0.84 ^d % | 33.23 ± 0.73 ^c % | 11.97 ± 0.66 | 7.68 ± 0.39 ^d % | % cells, Necrosis (AV−, PI+) ([4]; 2× IC50, 24 h): 1.52 ± 0.24%; % cells, Necrosis (AV−, PI+) ([4]; 4× IC50, 24 h): 1.79 ± 0.59%; % cells, Necrosis (AV−, PI+) ([5]; 0.5 × EC50, 24 h): 13.20 ± 1.62%; % cells, Late Apoptosis (AV+, PI+) ([5]; 2 × EC50, 24 h): 56.27 ± 1.51 ^d %; % cells, Necrosis (AV−, PI+) ([5]; 2 × EC50, 24 h): 15.93 ± 1.02%; % cells, Early Apoptosis (AV+, PI−) ([5]; 4 × EC50, 24 h): 7.55 ± 1.18 ^d %; % cells, Late Apoptosis (AV+, PI+) ([5]; 4 × EC50, 24 h): 67.50 ± 2.05 ^d %; % cells, Necrosis (AV−, PI+) ([5]; 4 × EC50, 24 h): 13.80 ± 1.47%; EC50 [6]: 26.1 ± 1.22 µM; inhibition at 31.2 µM [6]: 57.7%
2 | CC(C)(C)c1ccc(N/C(=N\C(=O)c2ccccc2)NCc2ccccc2)cc1 [LQOFG-6, (Z)-N-((benzylamine)((4-(tert-butyl)phenyl)amino)methylene)benzamide] | >47.4 | > 1000 | 24.4 ± 0.76 | 0.65 ± 0.19 | 0.18 ± 0.01 | 0.85 ± 0.09 | 0.46 ± 0.13 | 0.20 ± 0.03 | 1.47 ± 0.21 | 0.51 ± 0.08 | 0.32 ± 0.06 | 0.91 ± 0.34 | 0.20 ± 0.03 | >1000 | 3.62 ± 0.39% | 17.10 ± 0.80% | 4.05 ± 0.22% | 20.00 ± 1.74% | 6.57 ± 1.20 | 5.72 ± 0.20 ^a % | % cells, Late Apoptosis (AV+, PI+) ([5]; 2 × EC50, 24 h): 25.50 ± 0.80%; % cells, Necrosis (AV−, PI+) ([5]; 2 × EC50, 24 h): 7.15 ± 0.21%; % cells, Early Apoptosis (AV+, PI−) ([5]; 4 × EC50, 24 h): 9.06 ± 0.70 ^d %; % cells, Late Apoptosis (AV+, PI+) ([5]; 4 × EC50, 24 h): 45.47 ± 1.30 ^d %; % cells, Necrosis (AV−, PI+) ([5]; 4 × EC50, 24 h): 8.14 ± 0.78%; EC50 [6]: 21.1 ± 1.13 µM; inhibition at 31.2 µM [6]: 59.9%
